Patent publication US20200270309A1, “MALEIMIDE GROUP-MODIFIED ANGIOGENESIS INHIBITOR HM-1 AND USE THEREOF” (NANJING ANJI BIOLOGICAL TECHNOLOGY CO., LTD, priority 2017, published 2020)
Marks after values point to notes of the source that are not given here. Peptide text beside a SMILES is read from it. * marks the point of attachment. X65 = O=C1C=CC(=O)N1c1cccc(CCCCCCCCCCCCC(=O)*)c1; X84 = O=C1C=CC(=O)N1c1ccccc1CCCCCCCCCCCCC(=O)*; X63 = O=C1C=CC(=O)N1c1ccccc1CCCCCCC(=O)*

Key:
[1] = system: xylene-induced ear swelling; test: Xylene-induced mouse ear swelling; format: in vivo; conditions: Kunming mice, injected once a day for 5 days; for Swelling degree / Swelling degree (mg): right minus left ear piece weight 2 h after xylene; for Inhibition rate (%): xylene-induced ear swelling
Experimental: Kunming mice were taken, a normal saline group was taken as a blank control group, an aspirin group (200 mg/kg) was taken as a positive control group, and X1-X90 administration groups were taken as test groups. The mice were injected once a day for 5 consecutive days. The blank control group was given an equal volume of normal saline. One hour after the last administration, 0.05 mL of xylene was applied to both sides of the right ear of each mouse to cause inflammation, while no drug was applied to the left ear as a normal ear. Two hours later, the mice were put to death by dislocation. Two ears were cut along the auricle. Ear pieces were taken with a puncher and weighed, and the swelling degree and the swelling rate were calculated. Swelling degree=right ear piece weight-left ear piece weight, swelling rate=(swelling degree/left ear piece weight)*100%. Statistical t-test was conducted on the experimental results. *P<0.05 indicates significant difference, and **P<0.01 indicates extremely significant difference.

[2] = system: human retinal capillary endothelial cells (HRCECs); test: MTT proliferation inhibition on HRCECs; format: cell-based; conditions: 48 h; for A570 nm-A630 nm: mean±SD
Experimental: An MTT method was used to detect the inhibitory activity of the angiogenesis inhibitor polypeptide on proliferation of HRCECs. HRCECs were digested and collected with trypsin after being cultured in an incubator at 37° C. with 5% CO2 to a density of 90% or more. The cells were resuspended with a culture solution and counted under a microscope, the cell concentration was adjusted to 3.0×10^4 cells/mL, and the cell suspension was inoculated into a 96-well plate at 100 μL/well, and cultured overnight in an incubator at 37° C. with 5% CO2. After the cells were completely adhered to the wall, cells with the addition of the angiogenesis inhibitor polypeptide were used as administration groups, cells with the addition of Avastin were used as a positive control group, and cells with the addition of culture solution without any drugs were used as a blank control group. The cells were diluted to respective predetermined concentrations with the culture solution. The diluent were added into 96-well plates respectively at 100 μL per well, and the cells were cultured at 37° C. for 48 h in an incubator with 5% CO2. 20 μL of 5 mg/mL MTT was added into each well of the 96-well plate, and the cultivation was continued for 4 h. The culture medium was removed, and 100 μL of DMSO was added to each well for dissolution. The absorbance was measured at a detection wavelength of 570 nm and a reference wavelength of 630 nm using a microplate reader, and the PIR was calculated by the formula as follows:
PIR (%)=1−administration group/negative group
The experiment was repeated independently three times. The results were expressed as mean±SD, and statistical T test was conducted. *P<0.05 indicates significant difference, and **P<0.01 indicates extremely significant difference.

[3] = system: carrageenan-induced toe swelling; test: Carrageenan-induced toe swelling in rats; format: in vivo; conditions: SD rats; for Swelling degree 1 h: 1 h after carrageenan; for Swelling degree 3 h: 3 h after carrageenan; for Swelling degree 5 h: 5 h after carrageenan; for Swelling degree 7 h: 7 h after carrageenan
Experimental: The rats were injected once a day, and the model group was given the same volume of normal saline for 3 d and fed normally. […] The foot swelling degree was calculated according to the following formula: foot swelling degree (mL)=foot volume after inflammation-foot volume before inflammation. The number of milliliters of overflow liquid was recorded (method: a ballpoint pen is used to circle the protruding point of the right joint as a measurement mark, and the right hind feet of each rat are sequentially placed into the volume measurer, so that the hind limbs are exposed outside the barrel, and the immersion depth is at the coincidence of the circle and the liquid level. After the foot enters the liquid, the liquid level rises, and the volume of overflow liquid is the volume of the right hind foot of the rat, and the normal volume of the right hind foot of each rat is measured in sequence).

[4] = system: choroidal neovascularization; test: Choroidal neovascularization in rats (laser photocoagulation, FFA); format: in vivo; conditions: BN rats
Experimental: 6-8 weeks male BN rats were fully anesthetized by intraperitoneal injection of 846 compound anesthetic with a concentration of 0.5 mL/kg. Compound tropicamide eye drops were used once 5 min before laser photocoagulation to fully dilate the pupils of both eyes. The animals were fixed and subjected to krypton laser photocoagulation equidistantly around an optic disc with the aid of a −53.00D corneal contact lens at a distance of 2PD from the optic disc. A total of 8 photocoagulation spots were obtained. The laser wavelength was 647.1 nm, the power was 350 mW, and the diameter and time of the photocoagulation spots were 50 μm and 0.05 s respectively. Fundus photography was performed immediately after photocoagulation. FFA, histopathology and transmission electron microscopy were performed on the days 3, 7, 14, 21 and 28 after photocoagulation respectively.
Through fundus photography and FFA examination, it was confirmed that the fluorescein leakage of the photocoagulation spot reached its peak on day 21 after photocoagulation. At the same time, histopathological examination was carried out.
Rats with successful modeling were randomly grouped, with 5 rats in each group. The groups were marked as a negative control group and X1-X90 treatment groups respectively. The rats were injected with normal saline and X1-X90 (the doses of X1-X90 were each 0.05 μM) in the vitreous chamber once a day for 1 week. FFA examination was carried out 3 days, 7 days, 14 days and 28 days after administration.

[5] = system: retinal neovascularization (OIR model); test: Retinal vessels in OIR mice; format: in vivo, C57/B16 mice; conditions: for Area of neovascular plexus (mm^2): dose 0.05 μM in the vitreous chamber on day 13, retinal vessels evaluated on day 17; for Inhibition rate (%): dose 0.05 μM in the vitreous chamber on day 13, retinal vessels evaluated on day 17, vs negative control
From the text: Establishment of an OIR model: Young mice and their mothers were exposed in a 75% hyperoxic environment from day 7 to day 12 after the birth of C57/B16 mice, which caused capillaries in their central retina to disappear rapidly. The mice were returned to the indoor air on day 12, retinal vessels exposed to hyperoxia quickly disappeared, causing extensive abnormal neoangiogenesis, and the central part of the retina remained largely avascular for a long time. After the blood vessels disappeared completely, the mice were injected with normal saline (a negative group), X1-X12, X13-X44, X45-X90 in the vitreous chamber on day 13 respectively, and retinal vessels were evaluated on day 17 ([…] of Texas red labeled tomato agglutinin was injected into the left ventricle to mark unclosed vessels and circulated for 5 min).

[6] = day 3 after administration, total light spot number was 297, 0.05 μM in the vitreous chamber once a day for 1 week
[7] = day 7 after administration, total light spot number was 186, 0.05 μM in the vitreous chamber once a day for 1 week
[8] = day 14 after administration, total light spot number was 137, 0.05 μM in the vitreous chamber once a day for 1 week
[9] = day 28 after administration, total light spot number was 69, 0.05 μM in the vitreous chamber once a day for 1 week

Compound | Swelling degree ([1]; dose 2 mg/kg) | Inhibition rate (%) ([1]; dose 2 mg/kg) | Inhibition rate (%) ([1]; dose 4 mg/kg) | Swelling degree (mg) ([1]; dose 8 mg/kg) | Inhibition rate (%) ([1]; dose 8 mg/kg) | Inhibition rate (%) ([2]; dose 0.05 μM) | A570 nm-A630 nm ([2]; dose 0.05 μM) | Inhibition rate (%) ([2]; dose 0.1 μM) | A570 nm-A630 nm ([2]; dose 0.1 μM) | Inhibition rate (%) ([2]; dose 0.2 μM) | A570 nm-A630 nm ([2]; dose 0.2 μM) | Swelling degree 1 h ([3]; 2.0 mg/kg once a day for 3 d) | Swelling degree 3 h ([3]; 2.0 mg/kg once a day for 3 d) | Swelling degree 5 h ([3]; 2.0 mg/kg once a day for 3 d) | Swelling degree 7 h ([3]; 2.0 mg/kg once a day for 3 d) | Swelling degree 1 h ([3]; 4.0 mg/kg once a day for 3 d) | Swelling degree 3 h ([3]; 4.0 mg/kg once a day for 3 d) | Swelling degree 5 h ([3]; 4.0 mg/kg once a day for 3 d) | Swelling degree 7 h ([3]; 4.0 mg/kg once a day for 3 d) | CNV Incidence (%) [4, 6] | also measured
C[C@H](NC(=O)CNC(=O)[C@H](CCCNC(=N)N)NC(=O)CCCCCCCCCCCCc1cccc(N2C(=O)C=CC2=O)c1)C(=O)N[C@@H](CC(=O)O)C(=O)N[C@@H](CCCNC(=N)N)C(=O)N[C@@H](C)C(=O)NCC(=O)NCC(=O)NCC(=O)NCC(=O)N[C@@H](CCCNC(=N)N)C(=O)NCC(=O)N[C@@H](CC(=O)O)C(=O)O [X36] (X65-RGADRAGGGGRGD-OH) | 5.37 ± 0.84 mg | 13.80% | 13.80% | 4.7 ± 0.97* mg | 24.56% | 55.25%* | 0.5915 ± 0.05135 | 60.38%** | 0.5237 ± 0.03194 | 64.71%* | 0.4664 ± 0.03733 | 0.29 ± 0.17 mg | 0.34 ± 0.18 mg | 0.43 ± 0.13 mg | 0.32 ± 0.15 mg | 0.23 ± 0.15 mg | 0.33 ± 0.13 mg | 0.35 ± 0.12 mg | 0.32 ± 0.17 mg | 50.51% | Swelling degree ([1]; dose 4 mg/kg): 5.37 ± 0.21 mg; Leakage Light spot number [4, 6]: 150; CNV Incidence (%) [4, 7]: 49.46%; Leakage Light spot number [4, 7]: 92; CNV Incidence (%) [4, 8]: 40.15%; Leakage Light spot number [4, 8]: 55; CNV Incidence (%) [4, 9]: 43.48%; Leakage Light spot number [4, 9]: 30; Area of neovascular plexus (mm^2) [5]: 0.084 ± 0.009 mm^2; Inhibition rate (%) [5]: 60.38%**
C[C@H](NC(=O)CNC(=O)[C@H](CCCNC(=N)N)NC(=O)CCCCCCc1ccccc1N1C(=O)C=CC1=O)C(=O)N[C@@H](CC(=O)O)C(=O)N[C@@H](CCCNC(=N)N)C(=O)N[C@@H](C)C(=O)NCC(=O)NCC(=O)NCC(=O)NCC(=O)N[C@@H](CCCNC(=N)N)C(=O)NCC(=O)N[C@@H](CC(=O)O)C(=O)O [X18] (X63-RGADRAGGGGRGD-OH) | 5.42 ± 0.18 mg | 13.00% | 15.25% | 4.18 ± 0.9** mg | 32.91% | 42.60%* | 0.7586 ± 0.05265 | 52.30%** | 0.6304 ± 0.03508 | 61.78%* | 0.5051 ± 0.08266 | 0.23 ± 0.18 mg | 0.33 ± 0.16 mg | 0.36 ± 0.15 mg | 0.32 ± 0.13 mg | 0.24 ± 0.17 mg | 0.39 ± 0.18 mg | 0.45 ± 0.15 mg | 0.33 ± 0.12 mg | 53.87% | Swelling degree ([1]; dose 4 mg/kg): 5.28 ± 0.46 mg; Leakage Light spot number [4, 6]: 160; CNV Incidence (%) [4, 7]: 46.24%; Leakage Light spot number [4, 7]: 86; CNV Incidence (%) [4, 8]: 45.99%; Leakage Light spot number [4, 8]: 63; CNV Incidence (%) [4, 9]: 44.93%; Leakage Light spot number [4, 9]: 31; Area of neovascular plexus (mm^2) [5]: 0.119 ± 0.011 mm^2; Inhibition rate (%) [5]: 43.87%*
C[C@H](NC(=O)CNC(=O)[C@H](CCCNC(=N)N)NC(=O)CCCCCCCCCCCCc1ccccc1N1C(=O)C=CC1=O)C(=O)N[C@@H](CC(=O)O)C(=O)N[C@@H](CCCNC(=N)N)C(=O)N[C@@H](C)C(=O)NCC(=O)NCC(=O)NCC(=O)NCC(=O)N[C@@H](CCCNC(=N)N)C(=O)NCC(=O)N[C@@H](CC(=O)O)C(=O)O [X24] (X84-RGADRAGGGGRGD-OH) | 5.25 ± 0.06 mg | 15.73% | 20.06% | 4.34 ± 0.68** mg | 30.34% | 40.01%* | 0.7929 ± 0.02399 | 44.87%** | 0.7286 ± 0.00571 | 49.60%* | 0.6661 ± 0.02372 | 0.24 ± 0.16 mg | 0.34 ± 0.18 mg | 0.43 ± 0.12 mg | 0.38 ± 0.13 mg | 0.23 ± 0.17 mg | 0.35 ± 0.13 mg | 0.38 ± 0.16 mg | 0.32 ± 0.12 mg | 54.21% | Swelling degree (mg) ([1]; dose 4 mg/kg): 4.98 ± 0.19* mg; Leakage Light spot number [4, 6]: 161; CNV Incidence (%) [4, 7]: 49.46%; Leakage Light spot number [4, 7]: 92; CNV Incidence (%) [4, 8]: 45.99%; Leakage Light spot number [4, 8]: 63; CNV Incidence (%) [4, 9]: 44.93%; Leakage Light spot number [4, 9]: 31; Area of neovascular plexus (mm^2) [5]: 0.107 ± 0.012 mm^2; Inhibition rate (%) [5]: 49.53%*
